We go through twelve molecules from ChEMBL document CHEMBL1201862, “PubChem BioAssay data set” (2004).

Test systems include A498; A549; CAKI-1; HCT-15; HOP-92; K562; MOLT-4; Malme-3M; NCI-H23; SF-539; SK-MEL-2; SK-OV-3; SNB-19; SNB-78; SK-MEL-28; SK-MEL-5; RXF 393; SNB-75.
Holding throughout (assay): NCI tumour cell line growth inhibition, 48 h

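Tested at 5 concentrations; 48 h exposure; 96-well plates; endpoints linearly interpolated, else capped at highest concentration. GI50 = concentration required for 50% inhibition of growth.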 Active and inactive are the calls of the source. No stated cut-off is given here; in the data, active = GI50 up to about 1.1 µM and inactive = higher.

As to `O=C(CCc1cc(-c2ccccc2)nc(S)n1)N(Cc1ccccc1)Cc1ccccc1`, the GI50 with A498 is > 100 µM (inactive); in the experiment with A549, > 100 µM (inactive); in the experiment with CAKI-1 it was > 100 µM (inactive); in the experiment on HCT-15, above 100 µM; with HOP-92 it was 97.3 µM (inactive); in the experiment on K562, > 100 µM (inactive). In addition, the GI50 with MOLT-4, with Malme-3M, with NCI-H23, with SF-539, in the experiment with SK-MEL-2 and in the experiment with SK-OV-3 was > 100 µM (inactive) in each case. The GI50 in the experiment with SNB-19 and in the experiment with SNB-78 was > 100 µM (inactive) in each case.
For the molecule `O/N=C\C(=N/O)Nc1ccc(Cc2ccc(NC(/C=N\O)=N/O)cc2)cc1`, the GI50 in the experiment with A498 was 77.4 µM (inactive); in the experiment with A549, 87.5 µM (inactive); in the experiment on CAKI-1 it was 18.8 µM (inactive); in the experiment on HCT-15, 75.3 µM; with HOP-92, 25.8 µM (inactive); with K562 it was 37.9 µM (inactive). Also, the GI50 in the experiment with MOLT-4 is 30.8 µM (inactive); in the experiment on Malme-3M, 24.7 µM (inactive); in the experiment with NCI-H23, 55.5 µM (inactive); with SF-539, 45.2 µM (inactive); in the experiment with SK-MEL-28, > 100 µM (inactive); in the experiment on SK-MEL-2, 50.7 µM (inactive). Further, the GI50 in the experiment on SK-MEL-5 is 48.3 µM (inactive); in the experiment on SK-OV-3, 33.2 µM (inactive); in the experiment with SNB-19 it was 97.9 µM (inactive); in the experiment on SNB-78, > 100 µM (inactive).
For `COC1CC(OS(=O)(=O)c2ccc([N+](=O)[O-])cc2)C(OC(=O)c2ccccc2)C(C)O1` (stereo not given), the GI50 with A498 is 88.7 µM (inactive); with A549, > 100 µM (inactive); in the experiment with CAKI-1, > 100 µM (inactive); with HCT-15, above 100 µM; in the experiment with HOP-92, 55.2 µM (inactive); with K562, > 100 µM (inactive). The GI50 in the experiment with MOLT-4 is > 100 µM (inactive); in the experiment on Malme-3M it was > 100 µM (inactive); in the experiment on NCI-H23 it was > 100 µM (inactive); in the experiment with RXF 393 it was 39.1 µM (inactive); in the experiment on SF-539, 54.6 µM (inactive); with SK-MEL-28, > 100 µM (inactive). The GI50 with SK-MEL-5, with SNB-19 and in the experiment with SNB-78 was > 100 µM (inactive) in each case.
For the molecule `NCCn1ccc(NC(c2ccccc2)(c2ccccc2)c2ccccc2)nc1=O`, the GI50 was 65.5 µM (inactive) with A498; 25.2 µM (inactive) in the experiment on A549; above 100 µM in the experiment on HCT-15; 13.4 µM (inactive) in the experiment on HOP-92; 20.1 µM (inactive) in the experiment on K562; 19 µM (inactive) in the experiment on MOLT-4. Besides, the GI50 was 18.6 µM (inactive) in the experiment with Malme-3M; > 10 µM (inactive) in the experiment on NCI-H23; 4.08 µM (inactive) in the experiment on RXF 393; 17 µM (inactive) with SF-539; 20.2 µM (inactive) in the experiment on SK-MEL-28; 18.7 µM (inactive) in the experiment on SK-MEL-2. Further, the figures for the GI50 in the experiment with SNB-19, in the experiment on SNB-75 and in the experiment on SNB-78 were > 10 µM (inactive), 16.7 µM (inactive) and 20.6 µM (inactive), respectively.
Take `CCOC(=O)CC1COc2ccc3c(c21)OCO3` (stereo not given): the GI50 in the experiment on A498 was > 100 µM (inactive); in the experiment with A549 it was > 100 µM (inactive); in the experiment on HCT-15, above 100 µM; in the experiment on HOP-92, > 100 µM (inactive); with K562 it was > 100 µM (inactive); with MOLT-4 it was > 100 µM (inactive). In addition, the GI50 in the experiment with Malme-3M, in the experiment with NCI-H23, in the experiment with SF-539, in the experiment with SK-MEL-28, in the experiment with SK-MEL-2 and with SK-MEL-5 was > 100 µM (inactive) each time. The GI50 in the experiment with SK-OV-3, with SNB-19, in the experiment on SNB-75 and in the experiment with SNB-78 was > 100 µM (inactive) throughout.
On to `COC(=O)CSc1nnc(-c2ccccc2)[nH]1`, for which the GI50 in the experiment on A498 is > 100 µM (inactive); in the experiment on A549, > 100 µM (inactive); in the experiment on CAKI-1, > 100 µM (inactive); with HCT-15, above 100 µM; in the experiment with HOP-92 it was > 100 µM (inactive); with K562, > 100 µM (inactive). Further, the GI50 in the experiment with MOLT-4 is 16.4 µM (inactive); with Malme-3M, > 100 µM (inactive); with NCI-H23, > 100 µM (inactive); with SF-539 it was > 100 µM (inactive); in the experiment with SK-MEL-28, > 100 µM (inactive); in the experiment with SK-MEL-2, > 100 µM (inactive). Moreover, the GI50 is > 100 µM (inactive) with SK-MEL-5; > 100 µM (inactive) with SK-OV-3; > 100 µM (inactive) with SNB-19; 40.5 µM (inactive) in the experiment on SNB-75; > 100 µM (inactive) with SNB-78.
Take `COC(=O)C(CC(=O)Nc1ccc(Cl)c(Cl)c1)C(=O)C(=O)NC1C2CC3CC(C2)CC1C3` (stereo not given): the GI50 was > 100 µM (inactive) in the experiment on A498; > 100 µM (inactive) with A549; > 100 µM (inactive) in the experiment on CAKI-1; above 100 µM in the experiment on HCT-15; > 100 µM (inactive) in the experiment on HOP-92; > 100 µM (inactive) with K562. Further, the GI50 in the experiment on MOLT-4, with Malme-3M, in the experiment with NCI-H23, in the experiment on RXF 393, in the experiment with SF-539 and in the experiment with SK-MEL-28 was > 100 µM (inactive) throughout. Further, the GI50 in the experiment with SK-MEL-2, in the experiment with SK-MEL-5, in the experiment with SK-OV-3, in the experiment with SNB-19 and in the experiment on SNB-78 was > 100 µM (inactive) each time.
As to `COc1ccc(C2NC3=C(CCCC3)N2)cc1`, the GI50 with A498 is 79.4 µM (inactive); in the experiment with A549, > 100 µM (inactive); with HCT-15, 44.8 µM; with HOP-92 it was 54.2 µM (inactive); in the experiment on MOLT-4, 59.3 µM (inactive); in the experiment with Malme-3M it was 40.4 µM (inactive). Besides, the GI50 with NCI-H23 is 67 µM (inactive); with SF-539, 87.5 µM (inactive); with SK-MEL-28, > 100 µM (inactive); with SK-MEL-2, 43.8 µM (inactive); in the experiment with SK-MEL-5, 27.2 µM (inactive); in the experiment with SK-OV-3, 42.6 µM (inactive). The values for the GI50 in the experiment with SNB-75 and with SNB-78 were 58.7 µM (inactive) and > 100 µM (inactive), respectively.
Turning to `O=C1C(=O)N(c2ccc(Cl)cc2)C(=O)/C(=N/c2cccc3c(=O)[nH][nH]c(=O)c23)C1c1nc2ccccc2o1` (stereo not given), the GI50 in the experiment on A498 is > 100 µM (inactive); in the experiment on A549 it was > 100 µM (inactive); with CAKI-1 it was > 100 µM (inactive); with HCT-15, above 100 µM; in the experiment on HOP-92 it was 84.9 µM (inactive); in the experiment with K562 it was > 100 µM (inactive). For the same molecule, the GI50 in the experiment on MOLT-4, with Malme-3M, in the experiment with NCI-H23, in the experiment on SF-539, in the experiment with SK-MEL-28 and in the experiment on SK-MEL-2 was > 100 µM (inactive) in each case. The GI50 in the experiment with SK-MEL-5 is > 100 µM (inactive); in the experiment with SK-OV-3, > 100 µM (inactive); in the experiment on SNB-19 it was 84.9 µM (inactive); in the experiment with SNB-75, > 100 µM (inactive); in the experiment with SNB-78, > 100 µM (inactive).
As to `CC1OC(OCC2OC(Oc3c(-c4ccc(O)cc4)oc4cc(O)cc(O)c4c3=O)C(OC3OCC(O)(CO)C3O)C(O)C2O)C(O)C(O)C1O` (stereo not given), the GI50 with A498 was > 100 µM (inactive); in the experiment with A549, > 100 µM (inactive); in the experiment with CAKI-1 it was > 100 µM (inactive); with HCT-15 it was 22.1 µM; in the experiment with HOP-92, > 100 µM (inactive); in the experiment on K562, 29.4 µM (inactive). The GI50 in the experiment on MOLT-4, in the experiment with Malme-3M, with NCI-H23, in the experiment on SF-539, in the experiment on SK-MEL-28 and in the experiment on SK-MEL-2 was > 100 µM (inactive) in each case. The GI50 in the experiment with SK-MEL-5, in the experiment with SK-OV-3, in the experiment with SNB-19, in the experiment on SNB-75 and in the experiment on SNB-78 was > 100 µM (inactive) throughout.
For `CCOC(=O)c1oc2c(OC)ccc3c2c1CCC3`, the GI50 in the experiment on A498 is > 100 µM (inactive); with A549, > 100 µM (inactive); in the experiment on HCT-15 it was above 100 µM; in the experiment with HOP-92 it was 86.9 µM (inactive); in the experiment on K562, 66.8 µM (inactive); in the experiment on MOLT-4, 37.1 µM (inactive). The GI50 was > 100 µM (inactive) with Malme-3M; 96.4 µM (inactive) in the experiment with NCI-H23; > 100 µM (inactive) with RXF 393; > 100 µM (inactive) in the experiment on SF-539; > 100 µM (inactive) with SK-MEL-28; > 100 µM (inactive) in the experiment on SK-MEL-2. Besides, the GI50 with SK-MEL-5 was > 100 µM (inactive); with SK-OV-3, > 100 µM (inactive); in the experiment with SNB-19, > 100 µM (inactive); in the experiment with SNB-75, 77.6 µM (inactive); with SNB-78, > 100 µM (inactive).
Turning to `CCOC(=O)C1S/C(=N\c2ccccc2)N=C1C` (stereo not given), the GI50 is > 100 µM (inactive) with A498; 55.5 µM (inactive) in the experiment with A549; 55.5 µM with HCT-15; 22.3 µM (inactive) with HOP-92; 40.7 µM (inactive) in the experiment with K562; 38.2 µM (inactive) with MOLT-4. In addition, the GI50 is > 100 µM (inactive) in the experiment on Malme-3M; 67.3 µM (inactive) with NCI-H23; > 100 µM (inactive) with RXF 393; 73.5 µM (inactive) in the experiment on SF-539; > 100 µM (inactive) in the experiment on SK-MEL-28; > 100 µM (inactive) with SK-MEL-2. Besides, the figures for the GI50 in the experiment on SNB-19, in the experiment with SNB-75 and with SNB-78 were > 100 µM (inactive), 26.9 µM (inactive) and 83 µM (inactive), respectively.
